Experimental data as given in US9393288B2, “Methods of treating diseases associated with PPARγ” (The University of Vermont and State Agricultural College, priority 2012, dated 2016).
“Also recorded” adds a separate entry of the source.

What was measured:
Type in all cases: in vivo, rat
[1] = Conscious blood pressure, non-invasive tail-cuff method, SHR; details: SHR-F, relaxin 4 μg/hr 14 days
Protocol: Systemic blood pressures were determined in all groups of animals using a non-invasive tail-cuff method (Chan, S. L., and Cipolla, M. J. (2011) Relaxin causes selective outward remodeling of brain parenchymal arterioles via activation of peroxisome proliferator-activated receptor-gamma. FASEB J 25, 3229-3239). For untreated WKY-F and SHR-F groups, blood pressures were measured on the day the animals were euthanized. For relaxin treated groups, blood pressures were measured on day 0 (baseline, before pump implant), 2, 7 and 14. All animals were trained for 3 days before actual blood pressure measurements were taken.

MMP-2 = MMP-2 mRNA expression (qPCR) in brain cortex and PA, SHR; details: relaxin-treated SHR
Protocol: After dissecting PA and MCA for isolated vessel experiments, the remaining MCA, PA, and brain cortex from the MCA territory of 4-6 rats were collected and stored at −80° C. in RNase inhibitor (1 unit/μl, RiboLock, Fermentas, Glen Burnie, Md., USA) to determine mRNA expression levels of target genes using real-time qPCR methods. Target genes were assessed using Assays on Demand from Applied Biosystems. […] All primers were designed across an exon-exon junction to avoid detecting genomic DNA, so no DNase treatment was required. Housekeeping gene β-actin was used in all qPCR experiments as a control. […]
(§1) To investigate the mechanisms by which relaxin causes selectively remodeling of PA, mRNA expression of VEGF, MMP-2, and MMP-9 were compared between MCA, PA, brain cortex. To determine if relaxin activates peroxisome proliferator-activated receptor-gamma (PPARγ), expression levels of PPARγ target genes fatty acid binding protein-4 (FABP4) and plasminogen activator inhibitor-1 (PAI-1) were determined in mesenteric adipose tissue. Expression levels of PPARγ and its target genes PAI-1 and liver X receptors-α (LXR-α) were also determined in brain cortex (Chan, S. L., and Cipolla, M. J. (2012) Determination of PPARgamma activity in adipose tissue and spleen. J Immunoassay Immunochem 33, 314-324).

[2] = tested on: PPARγ and PPARγ target genes; assay: Expression of PPARγ and PPARγ target genes (qPCR) in adipose tissue and brain cortex, SHR
Protocol: After dissecting PA and MCA for isolated vessel experiments, the remaining MCA, PA, and brain cortex from the MCA territory of 4-6 rats were collected and stored at −80° C. in RNase inhibitor (1 unit/μl, RiboLock, Fermentas, Glen Burnie, Md., USA) to determine mRNA expression levels of target genes using real-time qPCR methods. Target genes were assessed using Assays on Demand from Applied Biosystems. […] All primers were designed across an exon-exon junction to avoid detecting genomic DNA, so no DNase treatment was required. Housekeeping gene β-actin was used in all qPCR experiments as a control. Standard techniques for real-time qPCR were performed by the Vermont Cancer Center DNA analysis facility at the University of Vermont, as described previously (Cipolla, M. J., Smith, J., Kohlmeyer, M. M., and Godfrey, J. A. (2009) SKCa and IKCa Channels, myogenic tone, and vasodilator responses in middle cerebral arteries and parenchymal arterioles: effect of ischemia and reperfusion. Stroke 40, 1451-1457).
as §1

[3] = SHR-F-Rln vs SHR-F, listed as Relaxin

## relaxin
[1]
  Blood pressure: did not cause a lowering of blood pressure
[1]; listed as Relaxin
  Blood pressure: did not affect
MMP-2
  MMP-2 expression in brain cortex: increased
[2]; [3]
  FABP4 expression in adipose tissue: decreased both FABP4 and PAI-1 expressions in adipose tissue, although this was not statistically significant; also recorded: decreased expression of FABP4 and PAI-1 in adipose tissue, although this was not statistically significant
  PAI-1 expression in adipose tissue: decreased both FABP4 and PAI-1 expressions in adipose tissue, although this was not statistically significant; also recorded: decreased expression of FABP4 and PAI-1 in adipose tissue, although this was not statistically significant
[2]; WKY-F, SHR-F, SHR-F-Rln
  Expression of PPARγ and its target genes (PAI-1, LXR-α) in brain cortex: did not affect
